Data as given in patent US20080070267A1, “Modulation Of Neurotransmitter Activity In Neurons” (The Regents of the University of California, priority 2004, published 2008).

Columns and labels:
[1] = test system: myoballs expressing glutamate receptors (rGluR2); assay: Whole-cell recording of spontaneous synaptic currents from myoballs expressing rGluR2 at neuronal growth cones; type: cell-based, Xenopus; details: myoballs expressing rGluR2 in contact with growth cones
[2] = test system: Ca^2+ spike activity of cultured embryonic spinal neurons; assay: Suppression of spike activity in dissociated neuron cultures; type: cell-based, Xenopus; details: 2 mM Ca^2+ culture medium

Row | Structure (SMILES) | spontaneous synaptic currents (SSCs), glutamatergic [1] | spike activity in vitro [2]
1 | N#Cc1cc2c(cc1[N+](=O)[O-])=NC(=O)C(=O)N=2 [CNQX] | blocked | –
2 | CC(=O)OCOC(=O)CN(CC(=O)OCOC(C)=O)c1ccccc1OCCOc1ccccc1N(CC(=O)OCOC(C)=O)CC(=O)OCOC(C)=O [BAPTA-AM, bis-(o-aminophenoxy)ethane-N,N,N,N-tetraacetic acid acetoxymethyl ester] | – | suppression of spike activity
